Data from US20260248810A1, “COMPOSITIONS FOR TREATING A SUBJECT FROM SEXUAL DYSFUNCTION” (priority 2023, published 2026).

Legend:
[1] = cited from earlier work
[2] = test system: male heterosexual patients with sexual problems (erection problems and reduced sexual arousal); assay: Self-rated sexual arousal (scale 1 to 10) before and during sexual activity, sublingual androgen(s) followed by Viagra; type: in vivo, human; details: history of the two male patients before the alternative treatments
Experimental: (§1) The first example concerns two male heterosexual patients with sexual problems (erection problems and reduced sexual arousal). […] This prompted two alternative forms of treatment. The first treatment involved taking 5 mg sublingual testosterone (in a solution consisting of alcohol, denaturalized water, testosterone and cyclodextrins) followed 2.5 hours later by taking Viagra (sildenafil 50 mg). The second treatment consisted of simultaneously taking 5 mg sublingual testosterone and 5 mg sublingual dihydrotestosterone (DHT) (in a solution consisting of alcohol, denaturalized water, DHT and cyclodextrins), followed after 2.5 hours by taking Viagra (50 mg). The testosterone and DHT solutions were prepared by a pharmacist on the request of a general practitioner. On both treatment days, patients were asked to engage in sexual activity between 1 and 1.5 hours after taking Viagra. […] Patients were also asked to answer some questions about their sexual arousal immediately before and within an hour after sexual activity.

[3] = Plasma total and free testosterone after sublingual androgen intake in two male patients; details: blood plasma 15 minutes after sublingual intake, 5 mg T, or 5 mg T + 5 mg DHT; for Free T: measured, not calculated; for concentration at 15 min: human, plasma, other: sublingual, 5 mg, Total T
Experimental: as §1
The table below describes the effects of the different treatments on ‘total testosterone’ and ‘free testosterone (i.e. measured, not calculated)’ for both patients: […]

[4] = sublingually with cyclodextrins; women about 0.1-2 mg, men about 0.5-20 mg; cited from earlier work

CC[C@H](C)[C@@H]1NC(=O)[C@H](Cc2ccc(O)cc2)NC(=O)[C@@H](N)CSSC[C@@H](C(=O)N2CCC[C@H]2C(=O)N[C@@H](CC(C)C)C(=O)NCC(N)=O)NC(=O)[C@H](CC(N)=O)NC(=O)[C@H](CCC(N)=O)NC1=O [oxytocin]
time of behavioral and neural effects after administration ([1]; dosages between 20-50 IE): 15 to 90 min
T-max of oxytocin levels in the blood circulation ([1]; intranasal administration): approximately 15 minutes
return of oxytocin levels to baseline ([1]; intranasal administration): approximately 90 minutes

CCCc1nn(C)c2c(=O)[nH]c(-c3cc(S(=O)(=O)N4CCN(C)CC4)ccc3OCC)nc12 [Viagra, sildenafil]
effect of the usual treatments on the sexual problems [2]: little or no effect

C[C@]12CC[C@H]3[C@@H](CCC4=CC(=O)CC[C@@]43C)[C@@H]1CC[C@@H]2O [T, 17-β-hydroxyandrost-4-en-3-one]
Free T ([3]; Patient 1): 440 pml/L
Free T ([3]; Patient 2): 1030 pml/L
concentration at 15 min ([3]; Patient 1): 28.7 nM
concentration at 15 min ([3]; Patient 2): 43.9 nM
time to pharmacological peak in testosterone [4]: about 15 minutes
